Measured values taken from patent US20150274657A1, “PYRROLIDINES” (MERCK PATENT GMBH, priority 2012, published 2015).
Where two headings read alike, the source gives them in different places.

What was measured:
[1] = target: T1, human Nav1.6 ion channels (Homo sapiens, UniProt Q9UQD0); assay: IonWorks electrophysiological assay on CHO cells expressing human Nav1.6; assay type: cell-based; settings: CHO human Nav1.6 expressing cells
T1 construct: host or cells: CHO
Experimental: IonWorks electrophysiological assays were conducted to profile compounds for activity on CHO human Nav1.6 ion channels expressing cells (Milipore) using a unique protocol to assess the close (tonic, Pulse 1) and inactivated state inhibition (Pulse 2). The membrane potential is initially held at a hyperpolarized potential (−120 mV) to drive sodium channels into the resting closed state. The membrane is then reset to 0 mV voltage (for 2.5 seconds) following a brief 5 ms hyperpolarization to partially remove inactivation of non-blocked sodium channels; a short 20 ms test voltage step is applied to assess the magnitude of inhibition.

[2] = secondary progressive MS patients; over 2 years; p=0.02; cited from earlier work
[3] = closed (tonic) state inhibition (Pulse 1), read-out: Nav1.6 Tonic
[4] = inactivated state inhibition (Pulse 2), read-out: Nav1.6 Inactivated

T1 sequence (Q9UQD0 whole entry): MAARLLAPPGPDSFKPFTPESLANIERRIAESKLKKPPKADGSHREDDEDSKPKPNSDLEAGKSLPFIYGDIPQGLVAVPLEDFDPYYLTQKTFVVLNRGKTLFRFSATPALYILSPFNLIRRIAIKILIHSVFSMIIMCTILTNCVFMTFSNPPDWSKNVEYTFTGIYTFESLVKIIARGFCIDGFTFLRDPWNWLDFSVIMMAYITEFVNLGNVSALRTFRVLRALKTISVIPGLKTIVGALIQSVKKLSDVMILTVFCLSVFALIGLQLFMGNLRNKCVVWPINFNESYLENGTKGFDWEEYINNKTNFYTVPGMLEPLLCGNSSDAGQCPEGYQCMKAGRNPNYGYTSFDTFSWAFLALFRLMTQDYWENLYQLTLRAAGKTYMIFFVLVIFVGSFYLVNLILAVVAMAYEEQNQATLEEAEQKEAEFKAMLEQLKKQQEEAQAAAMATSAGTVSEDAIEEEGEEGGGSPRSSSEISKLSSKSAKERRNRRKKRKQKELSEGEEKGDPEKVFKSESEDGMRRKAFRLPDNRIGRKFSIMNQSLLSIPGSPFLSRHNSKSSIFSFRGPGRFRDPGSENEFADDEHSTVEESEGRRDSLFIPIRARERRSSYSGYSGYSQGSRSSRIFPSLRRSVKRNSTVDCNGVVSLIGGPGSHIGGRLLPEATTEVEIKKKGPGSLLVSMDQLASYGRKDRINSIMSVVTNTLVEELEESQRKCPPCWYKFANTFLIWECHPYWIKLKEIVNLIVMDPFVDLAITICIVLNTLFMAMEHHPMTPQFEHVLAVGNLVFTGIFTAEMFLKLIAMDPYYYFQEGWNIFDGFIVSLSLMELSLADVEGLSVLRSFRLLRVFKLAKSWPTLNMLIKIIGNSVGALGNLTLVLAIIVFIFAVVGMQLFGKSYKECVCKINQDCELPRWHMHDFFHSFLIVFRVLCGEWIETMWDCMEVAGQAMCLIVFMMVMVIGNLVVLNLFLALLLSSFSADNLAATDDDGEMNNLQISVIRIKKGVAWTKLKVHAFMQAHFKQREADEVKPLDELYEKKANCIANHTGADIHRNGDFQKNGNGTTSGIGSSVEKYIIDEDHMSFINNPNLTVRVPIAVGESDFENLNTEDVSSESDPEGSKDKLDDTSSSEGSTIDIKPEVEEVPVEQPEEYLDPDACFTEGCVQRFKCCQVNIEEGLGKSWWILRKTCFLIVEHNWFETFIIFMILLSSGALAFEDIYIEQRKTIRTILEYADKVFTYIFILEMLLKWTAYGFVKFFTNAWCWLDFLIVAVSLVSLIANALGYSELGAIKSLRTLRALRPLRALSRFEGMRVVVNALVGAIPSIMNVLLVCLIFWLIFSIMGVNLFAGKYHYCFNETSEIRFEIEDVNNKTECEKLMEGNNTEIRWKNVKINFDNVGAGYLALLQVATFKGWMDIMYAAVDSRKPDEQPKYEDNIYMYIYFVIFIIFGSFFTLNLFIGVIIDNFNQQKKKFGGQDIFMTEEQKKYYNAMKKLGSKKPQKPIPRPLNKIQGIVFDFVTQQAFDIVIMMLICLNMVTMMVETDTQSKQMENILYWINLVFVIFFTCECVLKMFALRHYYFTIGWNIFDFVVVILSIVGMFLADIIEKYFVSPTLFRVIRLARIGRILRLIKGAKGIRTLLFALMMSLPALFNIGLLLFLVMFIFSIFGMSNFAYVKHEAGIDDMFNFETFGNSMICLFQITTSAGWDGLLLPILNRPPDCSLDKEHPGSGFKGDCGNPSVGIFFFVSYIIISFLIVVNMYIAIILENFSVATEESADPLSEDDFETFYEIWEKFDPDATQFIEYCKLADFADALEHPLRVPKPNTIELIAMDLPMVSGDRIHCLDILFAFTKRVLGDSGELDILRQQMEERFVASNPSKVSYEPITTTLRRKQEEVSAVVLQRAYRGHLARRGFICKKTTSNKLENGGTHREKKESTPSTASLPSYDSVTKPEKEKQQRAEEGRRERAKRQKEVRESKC

Work on `Cc1ccccc1CNC(=O)C1(C)CCN(Cc2cccc(Oc3ccccc3)c2)C1` (racemic) [Example 9, (±) 3-methyl-1-(3-phenoxy-benzyl)-pyrrolidine-3-carboxylic acid 2-methyl-benzylamide] yielded an IC50 [1, 3] of 14100 nM and an IC50 [1, 4] of 615 nM.
With `CC1(C(=O)NCc2ccccn2)CCN(Cc2cccc(Oc3ccccc3)c2)C1` (racemic) [Example 12, (±) 3-methyl-1-(3-phenoxy-benzyl)-pyrrolidine-3-carboxylic acid (pyridin-2-ylmethyl)-amide] the IC50 [1, 3] was over 33000 nM and the IC50 [1, 4] was 228 nM.
Compound `CC1(C(=O)N2CCc3cccc(C(F)(F)F)c3C2)CCN(Cc2cccc(Oc3ccccc3)c2)C1` (racemic) [Example 13, (±) [3-methyl-1-(3-phenoxy-benzyl)-pyrrolidin-3-yl]-(8-trifluoromethyl-3,4-dihydro-1H-isoquinolin-2-yl)-methanone] has an IC50 [1, 3] of over 33000 nM and an IC50 [1, 4] of 1970 nM.
`CN(Cc1ccccn1)C(=O)C1(C)CCN(Cc2cccc(Oc3ccccc3)c2)C1` (racemic) [Example 14, (±) 3-methyl-1-(3-phenoxy-benzyl)-pyrrolidine-3-carboxylic acid methyl-pyridin-2-ylmethyl-amide] showed an IC50 [1, 3] of 30300 nM and an IC50 [1, 4] of 473 nM.
For `CC1(C(=O)N2CCOCC2)CCN(Cc2cccc(Oc3ccccc3)c2)C1` (racemic) [Example 15, (±) [3-methyl-1-(3-phenoxy-benzyl)-pyrrolidin-3-yl]-morpholin-4-yl-methanone], the IC50 [1, 3] was 15500 nM and the IC50 [1, 4] was 733 nM.
In the case of `CC1(C(=O)NCc2cccnc2)CCN(Cc2cccc(Oc3ccccc3)c2)C1` (racemic) [Example 16, (±) 3-methyl-1-(3-phenoxy-benzyl)-pyrrolidine-3-carboxylic acid (pyridin-3-ylmethyl)-amide], the IC50 [1, 3] is reported as 13100 nM and the IC50 [1, 4] is reported as 409 nM.
Work on `CC1(C(=O)NCc2ccncc2)CCN(Cc2cccc(Oc3ccccc3)c2)C1` (racemic) [Example 17, (±) 3-methyl-1-(3-phenoxy-benzyl)-pyrrolidine-3-carboxylic acid (pyridin-4-ylmethyl)-amide] yielded an IC50 [1, 3] of 16400 nM and an IC50 [1, 4] of 940 nM.
For `CCNC(=O)C1CCN(Cc2cccc(Oc3ccccc3)c2)C1` (racemic) [Example 18, (±) 1-(3-phenoxy-benzyl)-pyrrolidine-3-carboxylic acid ethylamide], the IC50 [1, 3] was 23100 nM and the IC50 [1, 4] was 621 nM.
Work on `COCCNC(=O)C1CCN(Cc2cccc(Oc3ccccc3)c2)C1` (racemic) [Example 19, (±) 1-(3-phenoxy-benzyl)-pyrrolidine-3-carboxylic acid (2-methoxy-ethyl)-amide] yielded an IC50 [1, 3] of 30300 nM and an IC50 [1, 4] of 1180 nM.
In the case of `CN1CCN(C(=O)C2(C)CCN(Cc3cccc(Oc4ccccc4)c3)C2)CC1` (racemic) [Example 20, (±) [3-methyl-1-(3-phenoxy-benzyl)-pyrrolidin-3-yl]-(4-methyl-piperazin-1-yl)-methanone], the IC50 [1, 3] is reported as 8940 nM and the IC50 [1, 4] is reported as 1910 nM.
Compound `CC1(C(=O)NCc2ccccn2)CCN(Cc2csc(-c3ccccc3)n2)C1` (racemic) [Example 21, (±) 3-methyl-1-(2-phenyl-thiazol-4-ylmethyl)-pyrrolidine-3-carboxylic acid (pyridin-2-ylmethyl)-amide] has an IC50 [1, 3] of over 33000 nM and an IC50 [1, 4] of 1080 nM.
Work on `COC(=O)C1(C)CCN(Cc2cccc(OCC(C)C)c2)C1` (racemic) [Example 22, (±) 1-(3-isobutoxy-benzyl)-3-methyl-pyrrolidine-3-carboxylic acid methyl ester] yielded an IC50 [1, 3] of over 33000 nM and an IC50 [1, 4] of 994 nM.
Compound `CC(C)COc1cccc(CN2CCC(C)(C(=O)NCc3ccccn3)C2)c1` (racemic) [Example 23, (±) 1-(3-isobutoxy-benzyl)-3-methyl-pyrrolidine-3-carboxylic acid (pyridin-2-ylmethyl)-amide] has an IC50 [1, 3] of over 33000 nM and an IC50 [1, 4] of 445 nM.
Work on `CC(C)COc1cccc(CN2CCC(C)(C(=O)N(C)Cc3ccccn3)C2)c1` (racemic) [Example 25, (±) 1-(3-isobutoxy-benzyl)-3-methyl-pyrrolidine-3-carboxylic acid methyl-pyridin-2-ylmethyl-amide] yielded an IC50 [1, 3] of 19900 nM and an IC50 [1, 4] of 752 nM.
`CC1(C(=O)NCCc2ccccn2)CCN(Cc2cccc(Oc3ccccc3)c2)C1` (racemic) [Example 26, (±) 3-methyl-1-(3-phenoxy-benzyl)-pyrrolidine-3-carboxylic acid (2-pyridin-2-v1-ethyl)-amide] showed an IC50 [1, 3] of 10600 nM and an IC50 [1, 4] of 771 nM.
For `CC1CN(C(=O)C2CCN(Cc3cccc(Oc4ccccc4)c3)C2)CCO1` (racemic) [Example 27, (±) (2-methyl-morpholin-4-yl)-[1-(3-phenoxy-benzyl)-pyrrolidin-3-yl]-methanone], the IC50 [1, 3] was over 33000 nM and the IC50 [1, 4] was 1440 nM.
Compound `O=C(NCCc1ccccn1)C1CCN(Cc2cccc(Oc3ccccc3)c2)C1` (racemic) [Example 28, (±) 1-(3-phenoxy-benzyl)-pyrrolidine-3-carboxylic acid (2-pyridin-2-yl-ethyl)-amide] has an IC50 [1, 3] of 19600 nM and an IC50 [1, 4] of 1170 nM.
With `COC1CCCN(C(=O)C2CCN(Cc3cccc(Oc4ccccc4)c3)C2)C1` (racemic) [Example 29, (±) (3-methoxy-piperidin-1-yl)-[1-(3-phenoxy-benzyl)-pyrrolidin-3-yl]-methanone] the IC50 [1, 3] was over 33000 nM and the IC50 [1, 4] was 1890 nM.
`COC1CCN(C(=O)C2CCN(Cc3cccc(Oc4ccccc4)c3)C2)CC1` (racemic) [Example 30, (±) (4-methoxy-piperidin-1-yl)-[1-(3-phenoxy-benzyl)-pyrrolidin-3-yl]-methanone] showed an IC50 [1, 3] of over 33000 nM and an IC50 [1, 4] of 1090 nM.
Compound `CC1(C(=O)N2Cc3cccnc3C2)CCN(Cc2cccc(Oc3ccccc3)c2)C1` (racemic) [Example 31, (±) (5,7-dihydro-pyrrolo[3,4-b]pyridin-6-yl)-[3-methyl-1-(3-phenoxy-benzyl)-pyrrolidin-3-yl]-methanone] has an IC50 [1, 3] of over 33000 nM and an IC50 [1, 4] of 1740 nM.
For `CC1(C(=O)N2CCc3cccnc3C2)CCN(Cc2cccc(Oc3ccccc3)c2)C1` (racemic) [Example 32, (±) (5,8-dihydro-6H-[1,7]naphthyridin-7-yl)-[3-methyl-1-(3-phenoxy-benzyl)-pyrrolidin-3-yl]-methanone], the IC50 [1, 3] was over 33000 nM and the IC50 [1, 4] was 1670 nM.
`COC1CCN(C(=O)C2CCN(Cc3cccc(Oc4ccccc4)c3)C2)C1` (racemic) [Example 33, (±) (3-methoxy-pyrrolidin-1-yl)-[1-(3-phenoxy-benzyl)-Pyrrolidin-3-yl]-methanone] gave an IC50 [1, 3] of over 33000 nM and an IC50 [1, 4] of 1520 nM.
With `O=C(NCc1ccccn1)C1CCN(Cc2cccc(Oc3ccccc3)c2)C1` (racemic) [Example 34, (±) 1-(3-phenoxy-benzyl)-pyrrolidine-3-carboxylic acid (Pyridin-2-ylmethyl)-amide] the IC50 [1, 3] was 16200 nM and the IC50 [1, 4] was 353 nM.
`CCNC(=O)[C@@]1(C)CCN(Cc2cccc(Oc3ccccc3)c2)C1` (single isomer, unassigned) [Example 10] showed an IC50 [1, 3] of 20000 nM and an IC50 [1, 4] of 808 nM.
For `CCNC(=O)[C@]1(C)CCN(Cc2cccc(Oc3ccccc3)c2)C1` (single isomer, unassigned) [Example 11], the IC50 [1, 3] was 15700 nM and the IC50 [1, 4] was 825 nM.
Compound `CCNC(=O)C1(C)CCN(Cc2ccc(-c3ccccc3)cc2)C1` (stereo not shown) [Example 1] has an IC50 [1, 3] of 21400 nM and an IC50 [1, 4] of 1770 nM.
Work on `COCCNC(=O)C1(C)CCN(Cc2cccc(Oc3ccccc3)c2)C1` (stereo not shown) [Example 2] yielded an IC50 [1, 3] of 15500 nM and an IC50 [1, 4] of 993 nM.
In the case of `CCCNC(=O)C1(C)CCN(Cc2cccc(Oc3ccccc3)c2)C1` (stereo not shown) [Example 4], the IC50 [1, 3] is reported as 9420 nM and the IC50 [1, 4] is reported as 1030 nM.
Work on `CCCNC(=O)C1(C)CCN(Cc2ccc(-c3ccccc3)o2)C1` (stereo not shown) [Example 5] yielded an IC50 [1, 3] of 30700 nM and an IC50 [1, 4] of 785 nM.
Work on `CCCNC(=O)C1(C)CCN(Cc2ccc(OC)c3ccccc23)C1` (stereo not shown) [Example 6] yielded an IC50 [1, 3] of 23400 nM and an IC50 [1, 4] of 1860 nM.
In the case of `CCCNC(=O)C1(C)CCN(Cc2cccc(OC(=O)c3ccccc3)c2)C1` (stereo not shown) [Example 7], the IC50 [1, 3] is reported as over 33000 nM and the IC50 [1, 4] is reported as 1610 nM.
Compound `CCCNC(=O)C1(C)CCN(Cc2csc(-c3ccc(Cl)cc3)n2)C1` (stereo not shown) [Example 8] has an IC50 [1, 3] of 14800 nM and an IC50 [1, 4] of 1030 nM.
For `O=C(NCc1cccnc1)[C@@H]1CCN(Cc2cccc(Oc3ccccc3)c2)C1` [Example 24, (R)-1(3-phenoxy-benzyl)-pyrrolidine-3-carboxylic acid (pyridin-3-ylmethyl)-amide], the IC50 [1, 3] was 29900 nM and the IC50 [1, 4] was 1300 nM.
In the case of `Nc1nnc(-c2cccc(Cl)c2Cl)c(N)n1` [Lamotrigine], the “deterioration of the timed 25-foot walk” value [2] is given as “reduced the deterioration of the timed 25-foot walk”.
